Five compounds from US8778886B2, “Methods of making and using a cell penetrating peptide for enhanced delivery of nucleic acids, proteins, drugs, and adenovirus to tissues and cells, and compositions and kits” (Tufts University, priority 2007, dated 2014) can be followed below.

For data set [1], the system named is HER cells. The data set is described as follows: Membrane permeabilization, propidium iodide uptake after F-POD. It counts as cell-based, human. As to conditions: FACS, F-POD 0.2 to 2.0 μM (average), Triton-X100 1%. How it is done: HER cells were seeded on Lab Tek-II chamber slides and grown to about 70% confluence. Cells were washed twice with PBS and incubated with […] L-POD for 0, 5, 15, 30, 45, and 60 minutes or 1 nmol Lissamine only for 60 minutes. Cells were fixed for 15 minutes in formalin at room temperature. Cells for live imaging were grown on 24 well plates and incubated with […] of L-POD. Following incubation, cells were washed three times with PBS, incubated in phenol red-free DMEM supplemented with 2% FBS. Cells were visualized by light and fluorescent microscopy using either an Olympus IX51 (live cells) or an Olympus BX51 (fixed cells) with DIC, RFP, and GFP filters. Images were obtained using a Retiga 2000R FAST camera and QCapture Pro 5.0 (QImaging, BC, Canada). To measure L-POD uptake in the presence of trypsin, 0.2×10^6 HER cells were incubated with 2.0 nmole L-POD in media for 15 minutes at 37° C. followed by incubation in 2.5 mg/ml trypsin for 12 minutes at 37° C. For analysis of uptake at 4° C., cells were cooled to 4° C. for 45 minutes prior to the addition of peptide and cold (4° C.) reagents were used for peptide administration. […] The number of PI-positive cells was analyzed by FACS. […] Examples were performed in triplicate and 10,000 events per sample were counted. Results were analyzed using CellQuest Pro software (Becton Dickinson). […]

Data set [2] relates to E. coli. Kind of data set: Microbicidal activity, colony count after plating. It is filed as cell-based. As to conditions: 2 hours at 37° C., plating on LB agar. Here is the method:
(§1) Lissamine conjugated POD (L-POD) and either heparan sulfate or chondroitan sulfate were incubated together at each of molar ratios of 1:3.33, 1:6.67, and 1:8 in water for 30 minutes at room temperature. The complex was diluted in DMEM+2% FBS and added to 0.2×]06 HER cells for 5 minutes at 37° C. Following incubation, cells were trypsinized and suspended in PBS for FACS analysis as described above. To measure microbicidal activity of C-POD, XL-1 Blue cells (Stratagene, La Jolla, Calif.) were grown to mid logarithmic phase (OD600=0.600) and washed twice in a solution of 10 mM Tris, pH 7.4 and 5 mM Glucose. The cells were resuspended in 10 mL of the same solution and […] of the suspension was incubated with C-POD in a final volume of 50 μL. The peptide/bacteria cell solution was rocked for 2 hours at 37° C. The peptide-treated bacteria was diluted 1:4500 with LB broth, plated on agar, and grown overnight at 37° C. The following day, the bacterial colonies on each plate were counted to quantify peptide-related reduction in growth.
Since endophthalmitis, an infection within the eye, is regularly a complicating factor in drug delivery to ocular tissues [Ho J et al. 2007 Int Opthalmol Clin 47: 199-208], C-POD was examined for potential microbicidal activities. E. coli cells grown to mid-log phase were incubated with either H20 only or C-POD suspended in H20 at concentrations ranging from 0.03 μM to 60 μM, and cell number was determined by plating samples on LB agar. […] Greater concentrations of C-POD completely eliminated bacterial growth.

Data set [3] concerns neural retina. Kind of data set: Subretinal / intravitreal delivery of L-POD and QDPOD to retina in vivo. Further details: species or system C57BL/6J mice. As to conditions: 2 hours. How it is done:
The use of animals in this work was in accordance with the ARVO Statement for the Use of Animals in Ophthalmic and Vision Research. C57BL/6J mice were purchased from Jackson Laboratories, bred and maintained in a 12-hour light-dark cycle and cared for in accordance with federal, state and local regulations. For each Example herein at least 4 mice (8 eyes) were investigated, yielding roughly similar results. Mice were anesthetized by […] injection of xylazine (10 mg/ml)/ketamine (1 mg/ml). Subretinal or intravitreal injections were performed with a 32 G needle attached to a 5 μl glass syringe (Hamilton) by a trans scleral trans choroidal approach to deliver 0.25 nmole of L-POD per eye. For topical delivery to cornea, male C57BL6/6J mice at 6 weeks of age were anesthetized by intraperitoneal injection of ketamine/xylazine and 10 nmoles of either L-POD or lissamine only were dropped on the cornea and incubated for 45 minutes or 24 hours. Upon completion of the treatment, the animal was sacrificed by CO2 inhalation followed by cervical dislocation and the eyes harvested and washed three times in PBS. Fluorescent and bright field images were taken of each eye using a Nikon C-FMC microscope prior to fixation. Eyes were fixed overnight at 4° C. in 4% paraformaldehyde and embedded in Optimal Cutting Temperature Compound and 14 μm sections were collected using a Microm 550 cryostat. […]

For data set [4], the system named is Human embryonic retinal (HER) 911 cells. Kind of data set: L-POD uptake by HER cells (microscopy, lissamine-positive cells by FACS). It counts as cell-based. How it is done: HER cells were seeded on Lab Tek-II chamber slides and grown to about 70% confluence. Cells were washed twice with PBS and incubated with […] L-POD for 0, 5, 15, 30, 45, and 60 minutes or 1 nmol Lissamine only for 60 minutes. Cells were fixed for 15 minutes in formalin at room temperature. Cells for live imaging were grown on 24 well plates and incubated with […] of L-POD. Following incubation, cells were washed three times with PBS, incubated in phenol red-free DMEM supplemented with 2% FBS. Cells were visualized by light and fluorescent microscopy using either an Olympus IX51 (live cells) or an Olympus BX51 (fixed cells) with DIC, RFP, and GFP filters. Images were obtained using a Retiga 2000R FAST camera and QCapture Pro 5.0 (QImaging, BC, Canada). To measure L-POD uptake in the presence of trypsin, 0.2×10^6 HER cells were incubated with 2.0 nmole L-POD in media for 15 minutes at 37° C. followed by incubation in 2.5 mg/ml trypsin for 12 minutes at 37° C. For analysis of uptake at 4° C., cells were cooled to 4° C. for 45 minutes prior to the addition of peptide and cold (4° C.) reagents were used for peptide administration. Following incubation with peptide, cells were washed twice with PBS and spun and resuspended in PBS for FACS analysis. For measurement of membrane permeabilization, HER cells were incubated with 2.0 nmole FITC-HBP for 30 minutes at 37° C., washed twice, isolated, and suspended in PBS with 1 μM PI. The number of PI-positive cells was analyzed by FACS. FACS analysis was performed using a FACSCalibur (Becton Dickinson). Examples were performed in triplicate and 10,000 events per sample were counted. Results were analyzed using CellQuest Pro software (Becton Dickinson).
Human embryonic retinal (HER) 911 cells [Fallaux F J et al. 1996 Hum. Gene Ther. 7: 215-222] incubated with […] (8 μM) lissamine-conjugated POD (L-POD), followed by formalin fixation, became […] to 558 nm excitation (emission measured at 583 nm) within 1 min and appeared normal in bright field (FIG. 1 panel A). Within 5 min, L-POD was seen within the cytoplasm with both a diffuse cytoplasmic and slightly punctate pattern (Figure panel A).
To determine whether L-POD was internalized or was non-specifically associated with the plasma membrane, HER cells incubated with 2 nmoles (8 μM) L-POD for 15 min were treated with trypsin at 37° C. prior to counting of lissamine-positive cells by FACS. […] Sensitivity of POD peptide to trypsin-mediated digestion was confirmed by incubation of […] of C-POD with trypsin prior to loading on an acrylamide gel (inset FIG. 1 panel C). Whereas 92.23±0.65% of HER cells were lissamine-positive when incubated with L-POD at 37° C., only 48.74±2.32% of cells were lissamine-positive when incubated with L-POD at 4° C. (FIG. 1 panel D).
A general note: A flow cytometer gives signals particle by particle.

Data set [5] relates to cornea, sclera, optic nerve. Kind of data set: Topical application of L-POD to whole mouse eye in vivo. Further details: species or system C57BL6/6J mice. As to conditions: for staining of external ocular tissues: topical, 10 nmol, 45 min. Here is the method: The use of animals in this work was in accordance with the ARVO Statement for the Use of Animals in Ophthalmic and Vision Research. C57BL/6J mice were purchased from Jackson Laboratories, bred and maintained in a 12-hour light-dark cycle and cared for in accordance with federal, state and local regulations. For each Example herein at least 4 mice (8 eyes) were investigated, yielding roughly similar results. Mice were anesthetized by […] injection of xylazine (10 mg/ml)/ketamine (1 mg/ml). Subretinal or intravitreal injections were performed with a 32 G needle attached to a 5 μl glass syringe (Hamilton) by a trans scleral trans choroidal approach to deliver 0.25 nmole of L-POD per eye. For topical delivery to cornea, male C57BL6/6J mice at 6 weeks of age were anesthetized by intraperitoneal injection of ketamine/xylazine and 10 nmoles of either L-POD or lissamine only were dropped on the cornea and incubated for 45 minutes or 24 hours. Upon completion of the treatment, the animal was sacrificed by CO2 inhalation followed by cervical dislocation and the eyes harvested and washed three times in PBS. Fluorescent and bright field images were taken of each eye using a Nikon C-FMC microscope prior to fixation. Eyes were fixed overnight at 4° C. in 4% paraformaldehyde and embedded in Optimal Cutting Temperature Compound and 14 μm sections were collected using a Microm 550 cryostat.
To assess penetration of the cornea and sclera with L-POD, whole mouse eye was incubated in vivo with 10 nmol L-POD for 45 min followed by harvesting of ocular tissues.

The subject of data set [6] is HER cells. The data set is described as follows: Inhibition of L-POD uptake by proteoglycans. It counts as cell-based, human. How it is done:
as §1
To determine whether L-POD uses cell surface proteoglycans for binding and cell entry, L-POD was pre incubated with different amounts of either of the proteoglycans chondroitin sulfate or heparan sulfate, prior to addition to HER cells. Based on data from preliminary studies, ratios of L-POD:proteoglycan of 1:3.33, 1:6.67 and 1:8 were selected.
In contrast, the uptake of a TRITC-conjugated peptide containing an integrin-binding RGD motif was not affected by pre-incubation with either proteoglycan (FIG. 3 panel A).

Residues, ends and D or L forms follow the SMILES beside them. No end group written: not given here. *: point of attachment. FITC = O=C1OC2(c3ccc(O)cc3Oc3cc(O)ccc32)c2ccc(NC(=S)*)cc21 Some results are limits rather than exact numbers.

`C[C@H](NC(=O)[C@H](CCCCN)NC(=O)[C@H](C)NC(=O)[C@H](C)NC(=O)[C@H](CCCCN)NC(=O)[C@H](CCCCN)NC(=O)[C@H](CCCNC(=N)N)NC(=O)[C@H](C)NC(=O)[C@H](C)NC(=O)[C@H](CCCCN)NC(=O)[C@H](C)NC(=O)[C@H](C)NC(=O)[C@H](CCCCN)NC(=O)[C@H](CCCCN)NC(=O)[C@H](CCCNC(=N)N)NC(=O)[C@H](C)NC(=O)[C@H](C)NC(=O)[C@H](CCCCN)NC(=O)[C@H](C)NC(=O)[C@H](C)NC(=O)[C@H](CCCCN)NC(=O)[C@H](CCCCN)NC(=O)[C@H](CCCNC(=N)N)NC(=O)[C@H](C)NC(=O)[C@H](C)NC(=O)[C@H](CCCCN)NC(=O)[C@H](C)NC(=O)[C@H](C)NC(=O)[C@H](CCCCN)NC(=O)[C@H](CCCCN)NC(=O)[C@H](CCCNC(=N)N)NC(=O)[C@H](C)NC(=O)CNC(=O)CNC(=O)CNC(=S)Nc1ccc2c(c1)C(=O)OC21c2ccc(O)cc2Oc2cc(O)ccc21)C(=O)O` [F-POD] ({FITC}-GGGARKKAAKAARKKAAKAARKKAAKAARKKAAKA-OH) had a PI-positive cells in data set [1] of 3.98±0.70%.

Turning to GGG(ARKKAAKA)4 [POD], the “concentration giving significant inhibition of bacterial growth” value in data set [2] is 0.3 µM.

For the compound “L-POD: N terminal lissamine conjugated GGG(ARKKAAKA)4 (SEQ ID NO: 1) (lissamine-GGGARKKAAKAARKKAAKAARKKAAKAARKKAAKA)”, the figures for the “transduction of neural retina” value in data set [3] (intravitreal) and in data set [3] (subretinal) were “approximately 85%” and “approximately 40%”, respectively. Further, the lissamine-positive cells in data set [4] (2 nmoles (8 μM) L-POD 15 min, with incubation with trypsin) is 90.10±1.89%; in data set [4] (2 nmoles (8 μM) L-POD 15 min, without incubation with trypsin) it was 92.23±0.65%; in data set [4] (incubated with L-POD at 4° C.), 48.74±2.32%; in data set [4] (incubated with L-POD at 37° C.), 92.23±0.65%; in data set [6] (without pre incubation with any proteoglycan), 90.07±0.64%. For the same compound, in data set [4] (2 nmoles (8 μM) L-POD, formalin fixation), the “time until L-POD was seen within the cytoplasm” value is at most 5 min. For the same compound, in data set [4] (chlorpromazine, genistein, filipin), the “uptake of L-POD in the presence of inhibitors of endocytosis” value is listed as “no significant reduction”. Moreover, the “time to reach the optic nerve” value in data set [5] (administered topically) is on record as at most 45 min. The “staining of external ocular tissues” value in data set [5] was “bound strongly to the cornea, sclera and unexpectedly, also the optic nerve”. Moreover, the “uptake of L-POD (lissamine-positive cells)” value is 59.43±1.55% in data set [6] (chondroitin sulfate, 1:6.67); 34.38±3.13% in data set [6] (chondroitin sulfate, 1:8); 71.24±1.77% in data set [6] (chondroitin sulfate, L-POD:proteoglycan 1:3.33); 78.60±0.35% in data set [6] (heparan sulfate, 1:3.33); 57.78±2.83% in data set [6] (heparan sulfate, 1:6.67); 44.37±2.17% in data set [6] (heparan sulfate, 1:8).

Regarding Triton-X100 [reference compound], the PI-positive cells in data set [1] was found to be 91.44±9.66%.

Turning to lissamine [reference compound], in data set [4] (lissamine only, fixed cells), the “uptake by HER cells (microscopy)” value is given as “no evidence of uptake”. Also, the “staining of external ocular tissues” value in data set [5] is “weakly stained the cornea and sclera and did not stain the optic nerve”.
